# According to PMC5374420, “In Search of Small Molecule Inhibitors Targeting the Flexible CK2 Subunit Interface” (Pharmaceuticals, 2017):
# Where a SMILES comes first, the peptide text is derived from it. Bridges are numbered along the chain shown (N, C = ends).
# Tests used:
# [1] = system: p21 Thr145 phosphorylation, survivin expression, AKT activation; experiment: Western blot of intracellular events (AKT, phospho-p21 Thr145, survivin); assay type: cell-based
# Experimental: This was confirmed using the LIVE&DEAD^TM cell viability assay that provides a visual readout of cell integrity (Figure 8A lower panel). This cellular effect was also analyzed after treatment of WT or CK2β-depleted MCF-10A cells with increasing concentrations of TAT-Pc 13. TAT-Pc 13 caused a cell death in both cell types, which was already detectable at a concentration of 25 µM and became massive at 50–60 µM (Figure 8B). […] In order to investigate the intracellular events induced by TAT-Pc 13, MCF-10A cells were incubated with increasing concentrations of TAT-Pc 13 and analyzed by Western blot.
# Figure 8 Cellular effects of TAT-Pc 13. (A) MCF-10A cells were incubated with 25 µM of TAT-Pc 13 for 3 h and imaged with phase microscopy (upper panel) or with increasing concentrations of TAT-Pc 13 for 2 h and cell viability was evaluated using the LIVE&DEAD™ assay. Live cells fluoresce bright green (530 nm), whereas dead cells fluoresce red-orange (645 nm) (lower panel, scale bare: 100 µm); (B) WT (○-○) or CK2β-depleted (●-●) MCF-10A cells were incubated for 4 h with increasing concentrations of TAT-Pc 13 and cell death was evaluated using the LIVE&DEAD™ assay recording fluorescence at 645 nm. Representative data shown from two independent experiments in duplicate; (C) MCF-10A cells were pre-treated in the absence or presence of 20 µM z-VAD for 5 h and then incubated for 4 h with 25 µM random TAT-Pc 13 or TAT-Pc 13 and cell viability was evaluated as in (A) (scale bare: 100 µm); and (D) intracellular events induced by increasing concentrations of TAT-Pc 13. After 12 h of treatment, 786-O cells were lysed and analyzed by Western blot. TEXT PRINTED IN THE PICTURE: (B) TAT-Pc 13: TAT-Pc 13 (μM): 48; TAT-Pc 13 (μM): 60 DOUBTS OF THE COPYIST ABOUT THIS PICTURE: Panel B: 48 and 60 are printed in red at the x axis, where dashed lines drop from the two curves at about 50 on the Cell death (%) axis. No measure name (e.g. IC50) is printed with them. […]
# CK2α = molecular target: T1, CK2α (Homo sapiens, UniProt P68400); experiment: Thermal shift assay in cell lysates; assay type: binding
# T1 construct: endogenous in cells; host or cells: MCF-10A (CK2β-silenced by pLKO1 lentiviral shRNA; WT as comparison)
# Experimental: Thermal shift assay (TSA) is based on the biophysical principle of ligand-induced thermal stabilization of target proteins. This assay can be used to detect protein–ligand interactions in complex cell extracts. Therefore, we have generated thermal melting curves from cell extracts, in which the extent of CK2 unfolding was measured. The assays were performed on WT or CK2β-depleted MCF-10A cell extracts incubated with 50 µM of TAT or TAT-Pc 13 and exposed to increasing temperatures.
# Figure 5 Thermal shift assay in cell lysates. CK2β-depleted MCF-10A cell lysates were treated with 50 µM TAT or TAT-Pc 13 (A), or with PBS (Phosphate-buffered saline) or CK2β (B) for 30 min at room temperature. The respective lysates were divided into 20 µL aliquots and heated individually at different temperatures for 3 min. After centrifugation, the supernatants were assayed for CK2 activity with the CK2β-independent peptide substrate. Representative data shown from two independent experiments in duplicate.
# CK2β-depleted MCF-10A cell lysates prepared in 50 mM Tris-HCl pH 7.5, 150 mM NaCl, and 2% glycerol supplemented with Complete Protease Inhibitor Cocktail (Sigma, #P8340) were divided into four aliquots with two being treated with 50 µM TAT or […] and the other two aliquots with CK2β or PBS (control). […]
# 786-0 = experiment: Cell death of cancerous cell line; assay type: cell-based
# CK2α–CK2β interaction = molecular target: T2, CK2α–CK2β interaction (Homo sapiens, UniProt P68400); experiment: In vitro CK2α–CK2β interaction assay; assay type: binding; conditions: read-out: inhibition of subunit interaction
# T2 construct: made in house
# Experimental: Figure 4 Inhibitory activity of a TAT-Pc analogue in vitro. (A) CK2 holoenzyme (100 nM) was incubated in the presence of increasing concentrations of TAT-Pc 13 for 15 min at 4 °C. CK2 activity was then determined with CK2β-dependent or independent peptide substrates; (B) [^35S]-labeled CK2α was incubated with biotinylated MBP-CK2β immobilized on streptavidin coated plates (preformed complex) in the absence (1) or presence (2) of TAT-Pc 13. Alternatively, [^35S]-labeled CK2α was incubated with TAT-Pc 13 (3) or random TAT-Pc 13 (4) and then with immobilized biotinylated MBP-CK2β. After washing, the amount of [^35S]-labeled CK2α remaining in the complex was determined by radioactivity counting. Representative data shown from two independent experiments. Results are presented as mean ± s.d. of triplicates.
# The CK2α–CK2β interaction assay involved competition between plate-bound biotinylated MBP–CK2β and various cyclic peptides for binding to [^35S] methionine-labelled CK2α. The assay was performed as previously described in [15].
# T1 sequence (P68400 whole entry): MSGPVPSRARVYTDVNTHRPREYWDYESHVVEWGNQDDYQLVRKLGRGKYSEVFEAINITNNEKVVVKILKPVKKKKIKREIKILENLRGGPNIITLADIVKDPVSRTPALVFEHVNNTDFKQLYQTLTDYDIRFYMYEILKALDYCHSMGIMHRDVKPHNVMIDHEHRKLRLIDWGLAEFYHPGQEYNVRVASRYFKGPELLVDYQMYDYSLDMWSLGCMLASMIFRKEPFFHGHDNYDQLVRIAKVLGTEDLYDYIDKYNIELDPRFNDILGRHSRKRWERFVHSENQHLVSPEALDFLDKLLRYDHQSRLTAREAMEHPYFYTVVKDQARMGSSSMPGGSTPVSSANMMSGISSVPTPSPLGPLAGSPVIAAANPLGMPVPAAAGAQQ
# T2 sequence (P68400 whole entry): as above
smiles,measurement,setting,value
CC[C@H](C)[C@@H]1NC(=O)[C@H](CCCCN)NC(=O)[C@H](Cc2ccccc2)NC(=O)CNC(=O)[C@H](Cc2ccc(O)cc2)NC(=O)[C@H](CC(C)C)NC(=O)[C@H](CCCNC(=N)N)NC(=O)CNC(=O)CNC(=O)[C@@H](NC(=O)[C@H](CCC(N)=O)NC(=O)[C@@H]2CCCN2C(=O)[C@@H]2CCCN2C(=O)[C@H](CCCNC(=N)N)NC(=O)[C@H](CCCNC(=N)N)NC(=O)[C@H](CCCNC(=N)N)NC(=O)[C@H](CCC(N)=O)NC(=O)[C@H](CCCNC(=N)N)NC(=O)[C@H](CCCNC(=N)N)NC(=O)[C@H](CCCCN)NC(=O)[C@H](CCCCN)NC(=O)[C@H](CCCNC(=N)N)NC(=O)CN)CCCCNC(=O)CNC(=O)CNC(=O)[C@H](Cc2c[nH]cn2)NC1=O [TAT-Pc 13] (H-GRKKRRQRRRPPQKGGRLYGFKIHGG; lactam 14-C; N-terminus assumed),EC50,"[1]; 12 h treatment, text says MCF-10A cells, Figure 8D legend says 786-O cells, read-out: EC50, phosphorylation of p21 on Thr145 and decrease of survivin expression",15 µM
same,AKT activation,"[1]; increasing concentrations, 12 h",no sign of AKT activation
same,shift in the melting curves,"CK2α; CK2β-depleted MCF-10A cell extracts, 50 µM peptide, 30 min at room temperature, 3 min heating, read-out CK2 activity",4 °C
same,thermal shift in WT cell extracts,"CK2α; extracts from WT MCF-10A cells, not shown",no thermal shift
same,induction of cell death,786-0,induce cell death
same,inhibition at 50 µM,CK2α–CK2β interaction,80%
